The compounds below were run against recombinant Human Phosphodiesterase B2 (PDE4B2) (Homo sapiens, UniProt Q07343) (assay: Human Phosphodiesterase B2 Alpha Screen Assay). Conditions: Alpha Screen cAMP assay.
Format: biochemical
Experimental: Human Phosphodiesterase B2 Alpha Screen Assay
The assay uses recombinant Human Phosphodiesterase B2 (PDE4B2) produced in house (PrAZL0133), stored at −20° C. The substrate uses cAMP, part of the Alpha Screen cAMP kit (Perkin Elmer, Cat# 6760625M), stored at 4° C. The Alpha Screen kit also includes biotinylated cAMP, acceptor and donor beads.
The assay additions were as follows: Test compounds and controls were added to white 384-well flat-bottom plates (Greiner, Cat# 781075), 0.2 μl in 100% DMSO, followed by 10 μl PDE4B2 in reaction buffer. The reaction buffer constitution was: 50 mM Tris (pH 7.5), 8.3 mM MgCl2, 1.7 mM EGTA and 0.01% (w/v) Brij®35. The enzyme and the compounds were incubated at room temperature for 15 minutes. Then 10 μl cAMP in reaction buffer was added. The assay was stopped after 60 minutes incubation at room temperature by adding 10 μl acceptor beads in detection buffer with 40 mM EDTA. The detection buffer constitution was: 5 mM Tris (pH 7.5), 0.1% (w/v) BSA and 0.1% (v/v) Tween 20. This addition followed by an addition of 10 μl donor beads in detection buffer, with biotinylated cAMP. The plates were then incubated, dark at room temperature, for 5 hours followed by measurement on a Fusion™-α analyser. IC50 values (presented in Table 4) were determined using Xlfit curve fitting using model 205.

Chain of recombinant Human Phosphodiesterase B2 (PDE4B2) (Q07343 1-564 isoform Q07343-2): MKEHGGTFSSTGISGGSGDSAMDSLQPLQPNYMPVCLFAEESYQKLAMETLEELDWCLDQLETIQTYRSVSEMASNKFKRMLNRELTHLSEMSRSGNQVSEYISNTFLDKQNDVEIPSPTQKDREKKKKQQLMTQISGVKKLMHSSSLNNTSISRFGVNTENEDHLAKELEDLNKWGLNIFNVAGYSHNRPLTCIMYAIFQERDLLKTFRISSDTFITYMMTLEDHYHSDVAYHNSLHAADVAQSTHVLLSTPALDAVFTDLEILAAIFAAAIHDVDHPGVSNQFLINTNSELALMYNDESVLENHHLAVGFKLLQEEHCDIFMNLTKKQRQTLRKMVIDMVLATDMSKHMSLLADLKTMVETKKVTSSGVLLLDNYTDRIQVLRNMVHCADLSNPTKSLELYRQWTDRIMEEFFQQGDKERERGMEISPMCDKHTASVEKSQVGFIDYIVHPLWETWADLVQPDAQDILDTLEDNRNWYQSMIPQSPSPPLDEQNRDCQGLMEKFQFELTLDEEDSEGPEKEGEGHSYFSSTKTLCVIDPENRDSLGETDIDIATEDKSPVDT

Compound | IC50 [nM]
O=C(CNC(=O)c1ccccc1O)N[C@H]1CC[C@@H](n2c(=O)c3cc(F)cnc3n(C3CCSCC3)c2=O)CC1 [Example 6, N-[2-({cis-4-[6-fluoro-2,4-dioxo-1-(tetrahydro-2H-thiopyran-4-yl)-1,4-dihydropyrido[2,3-d]pyrimidin-3(2H)-yl]cyclohexyl}amino)-2-oxoethyl]-2-hydroxybenzamide] | 1.02
O=C(N[C@H]1CC[C@@H](n2c(=O)c3cc(F)cnc3n(C3CCSCC3)c2=O)CC1)c1ccco1 [Example 24, N-{cis-4-[6-fluoro-2,4-dioxo-1-(tetrahydro-2H-thiopyran-4-yl)-1,4-dihydropyrido[2,3-d]pyrimidin-3(2H)-yl]cyclohexyl}-2-furamide] | 2.76
O=C(N[C@H]1CC[C@@H](n2c(=O)c3cc(F)cnc3n(C3CCSC3)c2=O)CC1)c1cn2ccccc2n1 (relative stereo) [Example 28, N-{cis-4-[6-fluoro-2,4-dioxo-1-(tetrahydro-3-thienyl)-1,4-dihydropyrido[2,3-d]pyrimidin-3(2H)-yl]cyclohexyl}imidazo[1,2-a]pyridine-2-carboxamide] | 0.97
O=C(N[C@H]1CC[C@@H](n2c(=O)c3cc(F)cnc3n(C3CCSCC3)c2=O)CC1)[C@H](O)C1CCCCC1 [Example 12, (2R)-2-cyclohexyl-N-{cis-4-[6-fluoro-2,4-dioxo-1-(tetrahydro-2H-thiopyran-4-yl)-1,4-dihydropyrido[2,3-d]pyrimidin-3(2H)-yl]cyclohexyl}-2-hydroxyacetamide] | 0.887
O=C(N[C@H]1CC[C@@H](n2c(=O)c3cc(F)cnc3n(C3CCSC3)c2=O)CC1)c1ccccc1O (relative stereo) [Example 30, N-{cis-4-[6-fluoro-2,4-dioxo-1-(tetrahydro-3-thienyl)-1,4-dihydropyrido[2,3-d]pyrimidin-3(2H)-yl]cyclohexyl}-2-hydroxybenzamide] | 6.45
O=C(N[C@H]1CC[C@@H](n2c(=O)c3cc(F)cnc3n(C3CCSCC3)c2=O)CC1)c1ccc(O)cc1 [Example 16, N-{cis-4-[6-fluoro-2,4-dioxo-1-(tetrahydro-2H-thiopyran-4-yl)-1,4-dihydropyrido[2,3-d]pyrimidin-3(2H)-yl]cyclohexyl}-4-hydroxybenzamide] | 1.69
O=C(Cc1cccc(O)c1)N[C@H]1CC[C@@H](n2c(=O)c3cc(F)cnc3n(C3CCSCC3)c2=O)CC1 [Example 8, N-{cis-4-[6-fluoro-2,4-dioxo-1-(tetrahydro-2H-thiopyran-4-yl)-1,4-dihydropyrido[2,3-d]pyrimidin-3(2H)-yl]cyclohexyl}-2-(3-hydroxyphenyl)acetamide] | 1.62
CC(C)CC(=O)N[C@H]1CC[C@@H](n2c(=O)c3cc(F)cnc3n(C3CCSCC3)c2=O)CC1 [Example 21, N-{cis-4-[6-fluoro-2,4-dioxo-1-(tetrahydro-2H-thiopyran-4-yl)-1,4-dihydropyrido[2,3-d]pyrimidin-3(2H)-yl]cyclohexyl}-3-methylbutanamide] | 4.72
Cc1ccc(C(=O)N[C@H]2CC[C@@H](n3c(=O)c4cc(F)cnc4n(C4CCSC4)c3=O)CC2)c(O)c1 (relative stereo) [Example 31, N-{cis-4-[6-fluoro-2,4-dioxo-1-(tetrahydro-3-thienyl)-1,4-dihydropyrido[2,3-d]pyrimidin-3(2H)-yl]cyclohexyl}-2-hydroxy-4-methylbenzamide] | 2.75
O=C(N[C@H]1CC[C@@H](n2c(=O)c3cc(F)cnc3n(C3CCSCC3)c2=O)CC1)c1cc(CO)ccc1O [Example 26, N-{cis-4-[6-fluoro-2,4-dioxo-1-(tetrahydro-2H-thiopyran-4-yl)-1,4-dihydropyrido[2,3-d]pyrimidin-3(2H)-yl]cyclohexyl}-2-hydroxy-5-(hydroxymethyl)benzamide] | 4.31
O=C(N[C@H]1CC[C@@H](n2c(=O)c3cc(F)cnc3n(C3CCSCC3)c2=O)CC1)C(O)c1ccccc1 (relative stereo) [Example 22, N-{cis-4-[6-fluoro-2,4-dioxo-1-(tetrahydro-2H-thiopyran-4-yl)-1,4-dihydropyrido[2,3-d]pyrimidin-3(2H)-yl]cyclohexyl}-2-hydroxy-2-phenylacetamide] | 0.877
O=C(N[C@H]1CC[C@@H](n2c(=O)c3cc(F)cnc3n(C3CCSCC3)c2=O)CC1)c1cc2ccccn2n1 [Example 4, N-{cis-4-[6-fluoro-2,4-dioxo-1-(tetrahydro-2H-thiopyran-4-yl)-1,4-dihydropyrido[2,3-d]pyrimidin-3(2H)-yl]cyclohexyl}pyrazolo[1,5-a]pyridine-2-carboxamide] | 0.674
O=C(CCc1cccc(O)c1)N[C@H]1CC[C@@H](n2c(=O)c3cc(F)cnc3n(C3CCSCC3)c2=O)CC1 [Example 19, N-{cis-4-[6-fluoro-2,4-dioxo-1-(tetrahydro-2H-thiopyran-4-yl)-1,4-dihydropyrido[2,3-d]pyrimidin-3(2H)-yl]cyclohexyl}-3-(3-hydroxyphenyl)propanamide] | 2.53
O=C(N[C@H]1CC[C@@H](n2c(=O)c3cc(F)cnc3n(C3CCSC3)c2=O)CC1)c1cc(CO)ccc1O (relative stereo) [Example 29, N-{cis-4-[6-fluoro-2,4-dioxo-1-(tetrahydro-3-thienyl)-1,4-dihydropyrido[2,3-d]pyrimidin-3(2H)-yl]cyclohexyl}-2-hydroxy-5-(hydroxymethyl)benzamide] | 5.51
O=C(N[C@H]1CC[C@@H](n2c(=O)c3cc(F)cnc3n(C3CCSCC3)c2=O)CC1)c1ccccc1 [Example 23, N-{cis-4-[6-fluoro-2,4-dioxo-1-(tetrahydro-2H-thiopyran-4-yl)-1,4-dihydropyrido[2,3-d]pyrimidin-3(2H)-yl]cyclohexyl}benzamide] | 2.72
Cc1ccc(C(=O)N[C@H]2CC[C@@H](n3c(=O)c4cc(F)cnc4n(C4CCSCC4)c3=O)CC2)c(O)c1 [Example 9, N-{cis-4-[6-fluoro-2,4-dioxo-1-(tetrahydro-2H-thiopyran-4-yl)-1,4-dihydropyrido[2,3-d]pyrimidin-3(2H)-yl]cyclohexyl}-2-hydroxy-4-methylbenzamide] | 3.75
Cc1ccc(C(=O)N[C@H]2CC[C@@H](n3c(=O)c4cc(F)cnc4n(C4CCSCC4)c3=O)CC2)cc1O [Example 10, N-{cis-4-[6-fluoro-2,4-dioxo-1-(tetrahydro-2H-thiopyran-4-yl)-1,4-dihydropyrido[2,3-d]pyrimidin-3(2H)-yl]cyclohexyl}-3-hydroxy-4-methylbenzamide] | 1.12
O=C(N[C@H]1CC[C@@H](n2c(=O)c3cc(F)cnc3n(C3CCSCC3)c2=O)CC1)c1n[nH]c2ccccc12 [Example 5, N-{cis-4-[6-fluoro-2,4-dioxo-1-(tetrahydro-2H-thiopyran-4-yl)-1,4-dihydropyrido[2,3-d]pyrimidin-3(2H)-yl]cyclohexyl}-1H-indazole-3-carboxamide] | 1.35
O=C(N[C@H]1CC[C@@H](n2c(=O)c3cc(F)cnc3n(C3CCSCC3)c2=O)CC1)C1CC1 [Example 1, N-{cis-4-[6-Fluoro-2,4-dioxo-1-(tetrahydro-2H-thiopyran-4-yl)-1,4-dihydropyrido[2,3-d]pyrimidin-3(2H)-yl]cyclohexyl}cyclopropanecarboxamide] | 4.59
O=C(N[C@H]1CC[C@@H](n2c(=O)c3cc(F)cnc3n(C3CCSCC3)c2=O)CC1)c1cn2ccccc2n1 [Example 2, N-{cis-4-[6-Fluoro-2,4-dioxo-1-(tetrahydro-2H-thiopyran-4-yl)-1,4-dihydropyrido[2,3-d]pyrimidin-3(2H)-yl]cyclohexyl}imidazo[1,2-a]pyridine-2-carboxamide] | 1.1
COc1cc(C(=O)N[C@H]2CC[C@@H](n3c(=O)c4cc(F)cnc4n(C4CCSCC4)c3=O)CC2)ccc1O [Example 11, N-{cis-4-[6-fluoro-2,4-dioxo-1-(tetrahydro-2H-thiopyran-4-yl)-1,4-dihydropyrido[2,3-d]pyrimidin-3(2H)-yl]cyclohexyl}-4-hydroxy-3-methoxybenzamide] | 1.61
COc1ccc(C(=O)N[C@H]2CC[C@@H](n3c(=O)c4cc(F)cnc4n(C4CCSCC4)c3=O)CC2)cc1O [Example 7, N-{cis-4-[6-fluoro-2,4-dioxo-1-(tetrahydro-2H-thiopyran-4-yl)-1,4-dihydropyrido[2,3-d]pyrimidin-3(2H)-yl]cyclohexyl}-3-hydroxy-4-methoxybenzamide] | 0.874
O=C(N[C@H]1CC[C@@H](n2c(=O)c3cc(F)cnc3n(C3CCSCC3)c2=O)CC1)c1cccn2ccnc12 [Example 25, N-{cis-4-[6-fluoro-2,4-dioxo-1-(tetrahydro-2H-thiopyran-4-yl)-1,4-dihydropyrido[2,3-d]pyrimidin-3(2H)-yl]cyclohexyl}imidazo[1,2-a]pyridine-8-carboxamide] | 5.59
O=C(N[C@H]1CC[C@@H](n2c(=O)c3cc(F)cnc3n(C3CCSCC3)c2=O)CC1)c1ccccc1O [Example 17, N-{cis-4-[6-fluoro-2,4-dioxo-1-(tetrahydro-2H-thiopyran-4-yl)-1,4-dihydropyrido[2,3-d]pyrimidin-3(2H)-yl]cyclohexyl}-2-hydroxybenzamide] | 4.65
O=C(N[C@H]1CC[C@@H](n2c(=O)c3cc(F)cnc3n(C3CCSCC3)c2=O)CC1)c1ncccc1O [Example 20, N-{cis-4-[6-fluoro-2,4-dioxo-1-(tetrahydro-2H-thiopyran-4-yl)-1,4-dihydropyrido[2,3-d]pyrimidin-3(2H)-yl]cyclohexyl}-3-hydroxypyridine-2-carboxamide] | 5.9

Reference: patent US20090233907A1, “Pyridopyrimidine Derivatives and Their Use as PDE4 Inhibitors” (ASTRAZENECA AB, priority 2006, published 2009)
